# Columns and labels:
# [1] = biological target: T1, HiBit-BRM fusion protein (Homo sapiens, UniProt P51531); assay: HiBiT-BRM cell-based degradation assay (Nano-Glo HiBiT Lytic Detection, 24 h); conditions: HeLa cell line expressing HiBiT-BRM; for DC50: read-out: BRM HiBit Degradation IC50
# T1 construct: expressed in transfected cells
# In short: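 HeLa cells stably expressing HiBiT-BRM were treated for 24 h with compounds (10-point 3-fold dilutions, 30 μM final top dose, in duplicate). HiBiT was detected by lytic LgBiT complementation luminescence. % degradation was normalized to DMSO (high control) and 2 μM of a reference BRM/BRG1 degrader (low control).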
# [2] = biological target: T2, HiBit-BRG1 fusion protein (Homo sapiens, UniProt P51532); assay: HiBiT-BRG1 cell-based degradation assay (Nano-Glo HiBiT Lytic Detection, 24 h); conditions: HeLa cell line expressing HiBit-BRG1 and LgBit; for Dmax: read-out: BRG1 HiBit Degradation Maximum (%); for DC50: read-out: BRMG1 HiBit Degradation IC50
# T2 construct: expressed in transfected cells
# In short: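 HeLa cells stably expressing HiBiT-BRG1 plus LgBit, 5000/well, treated 24 h, then lysed with Nano-Glo HiBiT lytic reagent and luminescence read. % degradation normalised between DMSO (high control) and 2 μM reference BRM/BRG1 degrader (low control).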
# T1 sequence (P51531 whole entry, the tested form may be a part): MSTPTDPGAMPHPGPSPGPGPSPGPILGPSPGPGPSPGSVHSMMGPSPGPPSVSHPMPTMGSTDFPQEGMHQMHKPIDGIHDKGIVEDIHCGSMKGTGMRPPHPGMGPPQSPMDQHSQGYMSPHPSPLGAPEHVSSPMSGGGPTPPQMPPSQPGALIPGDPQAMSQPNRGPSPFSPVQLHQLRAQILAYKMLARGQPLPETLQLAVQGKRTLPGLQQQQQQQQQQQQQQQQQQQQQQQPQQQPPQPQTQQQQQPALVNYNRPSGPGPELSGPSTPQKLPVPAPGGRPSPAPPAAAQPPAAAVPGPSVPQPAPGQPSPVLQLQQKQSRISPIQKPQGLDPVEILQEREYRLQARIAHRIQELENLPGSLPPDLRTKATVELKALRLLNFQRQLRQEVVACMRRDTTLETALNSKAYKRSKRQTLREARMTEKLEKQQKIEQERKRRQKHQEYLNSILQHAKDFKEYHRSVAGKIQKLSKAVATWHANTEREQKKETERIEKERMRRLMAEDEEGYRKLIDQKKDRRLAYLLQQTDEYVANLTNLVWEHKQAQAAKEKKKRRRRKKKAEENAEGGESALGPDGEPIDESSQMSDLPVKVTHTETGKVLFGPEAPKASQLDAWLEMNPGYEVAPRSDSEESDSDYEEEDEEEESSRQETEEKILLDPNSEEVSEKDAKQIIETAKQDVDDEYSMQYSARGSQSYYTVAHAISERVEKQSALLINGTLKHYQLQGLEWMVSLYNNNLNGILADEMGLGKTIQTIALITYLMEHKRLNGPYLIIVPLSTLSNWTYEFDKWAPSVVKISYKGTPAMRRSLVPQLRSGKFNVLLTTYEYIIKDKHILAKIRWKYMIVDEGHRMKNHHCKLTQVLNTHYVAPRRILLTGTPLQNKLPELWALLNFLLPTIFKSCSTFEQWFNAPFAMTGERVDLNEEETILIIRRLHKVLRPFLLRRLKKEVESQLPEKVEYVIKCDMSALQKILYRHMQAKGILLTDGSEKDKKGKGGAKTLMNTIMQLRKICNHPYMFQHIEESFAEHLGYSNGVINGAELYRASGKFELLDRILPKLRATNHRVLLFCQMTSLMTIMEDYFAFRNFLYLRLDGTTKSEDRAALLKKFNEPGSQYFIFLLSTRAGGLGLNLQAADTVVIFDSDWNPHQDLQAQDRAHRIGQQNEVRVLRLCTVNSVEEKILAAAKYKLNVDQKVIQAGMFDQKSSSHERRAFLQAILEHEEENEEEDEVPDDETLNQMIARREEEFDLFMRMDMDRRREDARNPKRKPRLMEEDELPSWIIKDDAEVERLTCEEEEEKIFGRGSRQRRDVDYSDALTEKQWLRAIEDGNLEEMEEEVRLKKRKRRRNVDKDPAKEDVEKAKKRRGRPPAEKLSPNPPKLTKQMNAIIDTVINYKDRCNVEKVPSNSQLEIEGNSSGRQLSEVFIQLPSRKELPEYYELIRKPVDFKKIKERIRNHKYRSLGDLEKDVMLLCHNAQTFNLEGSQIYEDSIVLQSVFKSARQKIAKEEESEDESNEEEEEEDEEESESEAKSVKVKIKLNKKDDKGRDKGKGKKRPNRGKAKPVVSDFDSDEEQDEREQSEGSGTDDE
# T2 sequence (P51532 whole entry, the tested form may be a part): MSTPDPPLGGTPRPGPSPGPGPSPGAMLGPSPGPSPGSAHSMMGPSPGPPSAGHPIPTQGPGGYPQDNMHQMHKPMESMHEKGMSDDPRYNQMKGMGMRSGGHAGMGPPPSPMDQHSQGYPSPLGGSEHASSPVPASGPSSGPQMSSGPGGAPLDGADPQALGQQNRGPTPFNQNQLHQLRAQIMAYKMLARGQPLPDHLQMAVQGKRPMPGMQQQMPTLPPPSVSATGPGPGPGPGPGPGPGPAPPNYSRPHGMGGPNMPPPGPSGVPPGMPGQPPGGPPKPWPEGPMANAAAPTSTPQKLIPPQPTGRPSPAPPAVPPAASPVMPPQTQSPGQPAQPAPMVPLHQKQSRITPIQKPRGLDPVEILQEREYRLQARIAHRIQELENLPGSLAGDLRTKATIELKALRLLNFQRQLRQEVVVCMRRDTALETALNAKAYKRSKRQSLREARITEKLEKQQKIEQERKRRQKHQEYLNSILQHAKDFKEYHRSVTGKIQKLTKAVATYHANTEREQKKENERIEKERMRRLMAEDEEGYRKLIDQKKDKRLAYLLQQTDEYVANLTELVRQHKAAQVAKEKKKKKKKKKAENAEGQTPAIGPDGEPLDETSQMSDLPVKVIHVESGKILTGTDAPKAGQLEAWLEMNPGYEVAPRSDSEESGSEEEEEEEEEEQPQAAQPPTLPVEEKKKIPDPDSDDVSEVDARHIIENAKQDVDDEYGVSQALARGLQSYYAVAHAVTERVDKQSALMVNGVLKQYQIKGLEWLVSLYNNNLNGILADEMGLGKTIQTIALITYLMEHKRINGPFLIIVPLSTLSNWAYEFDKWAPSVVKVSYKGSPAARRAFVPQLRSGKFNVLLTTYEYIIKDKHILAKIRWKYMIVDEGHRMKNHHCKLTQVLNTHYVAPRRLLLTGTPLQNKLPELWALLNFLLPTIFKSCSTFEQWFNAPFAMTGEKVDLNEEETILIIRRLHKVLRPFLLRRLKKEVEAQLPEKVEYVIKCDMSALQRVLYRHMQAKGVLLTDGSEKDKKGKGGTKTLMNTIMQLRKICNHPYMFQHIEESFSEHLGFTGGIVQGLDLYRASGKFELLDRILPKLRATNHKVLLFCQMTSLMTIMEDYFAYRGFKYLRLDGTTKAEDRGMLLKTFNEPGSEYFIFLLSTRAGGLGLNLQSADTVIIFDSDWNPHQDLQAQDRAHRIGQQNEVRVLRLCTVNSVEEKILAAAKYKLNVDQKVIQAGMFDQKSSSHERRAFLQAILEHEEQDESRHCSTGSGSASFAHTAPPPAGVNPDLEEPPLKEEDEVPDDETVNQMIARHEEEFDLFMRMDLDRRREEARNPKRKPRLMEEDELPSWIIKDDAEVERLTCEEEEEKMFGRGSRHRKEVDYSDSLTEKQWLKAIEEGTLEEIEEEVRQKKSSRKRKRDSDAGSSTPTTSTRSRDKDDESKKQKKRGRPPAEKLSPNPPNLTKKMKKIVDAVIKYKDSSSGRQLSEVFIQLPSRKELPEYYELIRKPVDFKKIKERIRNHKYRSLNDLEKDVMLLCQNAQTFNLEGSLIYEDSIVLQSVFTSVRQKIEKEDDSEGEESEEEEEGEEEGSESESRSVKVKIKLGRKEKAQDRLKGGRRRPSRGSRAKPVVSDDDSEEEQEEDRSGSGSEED
DC50 [1],Dmax [2],DC50 [2],SMILES,BRM HiBit Degradation Maximum (%) [1]
> 100 nM,> 50%,> 1000 nM,"Cc1ncsc1-c1ccc([C@H](C)NC(=O)[C@@H]2C[C@@H](O)CN2C(=O)[C@@H](c2cc(OCCNC(=O)C(=O)N3CC(c4cc5cc(-c6ccccc6O)nnc5[nH]4)C3)no2)C(C)C)cc1 (racemic) [Compound 240, (2S,4R)-4-hydroxy-1-((R)-2-(3-(2-(2-(3-(3-(2-hydroxyphenyl)-7H-pyrrolo[2,3-c]pyridazin-6-yl)azetidin-1-yl)-2-oxoacetamido)ethoxy)isoxazol-5-yl)-3-methylbutanoyl)-N-((S)-1-(4-(4-methylthiazol-5-yl)phenyl)ethyl)pyrrolidine-2-carboxamide]",A (“A” indicates maximum degradation ≥ 75%)
> 10 nM,< 50%,–,"Cc1ncsc1-c1ccc(CNC(=O)[C@@H]2C[C@@H](O)CN2C(=O)[C@@H](NC(=O)[C@H]2CC[C@@H](c3cnc(N4CCC(c5cc6cc(-c7ccccc7O)nnc6[nH]5)CC4)nc3)CC2)C(C)(C)C)cc1 (racemic) [Compound 94, (2S,4R)-4-hydroxy-1-((S)-2-((1s,4R)-4-(2-(4-(3-(2-hydroxyphenyl)-7H-pyrrolo[2,3-c]pyridazin-6-yl)piperidin-1-yl)pyrimidin-5-yl)cyclohexane-1-carboxamido)-3,3-dimethylbutanoyl)-N-(4-(4-methylthiazol-5-yl)benzyl)pyrrolidine-2-carboxamide]",A (“A” indicates maximum degradation ≥ 75%)
–,< 50%,–,"Cc1ncsc1-c1ccc(CNC(=O)[C@@H]2C[C@@H](O)CN2C(=O)[C@@H](NC(=O)CCCCCCCCCCCCC(=O)N2CC(c3cc4cc(-c5ccccc5O)nnc4[nH]3)C2)C(C)(C)C)cc1 [Compound 17, (2S,4R)-4-hydroxy-1-((S)-2-(14-(3-(3-(2-hydroxyphenyl)-7H-pyrrolo[2,3-c]pyridazin-6-yl)azetidin-1-yl)-14-oxotetradecanamido)-3,3-dimethylbutanoyl)-N-(4-(4-methylthiazol-5-yl)benzyl)pyrrolidine-2-carboxamide]",C (“C” indicates maximum degradation < 50%)
–,< 50%,–,"Cc1ncsc1-c1ccc([C@H](C)NC(=O)[C@@H]2C[C@@H](O)CN2C(=O)[C@H](c2cc(N(C)CCN3CC(c4cc5cc(-c6ccccc6O)nnc5[nH]4)C3)no2)C(C)C)cc1 (racemic) [Compound 257, (2S,4R)-4-hydroxy-1-((S)-2-(3-((2-(3-(3-(2-hydroxyphenyl)-7H-pyrrolo[2,3-c]pyridazin-6-yl)azetidin-1-yl)ethyl)(methyl)amino)isoxazol-5-yl)-3-methylbutanoyl)-N-((S)-1-(4-(4-methylthiazol-5-yl)phenyl)ethyl)pyrrolidine-2-carboxamide]",C (“C” indicates maximum degradation < 50%)
–,< 50%,–,"Cc1ncsc1-c1ccc(CNC(=O)[C@@H]2C[C@@H](O)CN2C(=O)[C@@H](NC(=O)CCCC(=O)N[C@@H]2CCc3[nH]c4nnc(-c5ccccc5O)cc4c3C2)C(C)(C)C)cc1 [Compound 180, N1-((S)-1-((2S,4R)-4-hydroxy-2-((4-(4-methylthiazol-5-yl)benzyl)carbamoyl)pyrrolidin-1-yl)-3,3-dimethyl-1-oxobutan-2-yl)-N5-((R)-3-(2-hydroxyphenyl)-6,7,8,9-tetrahydro-5H-pyridazino[3,4-b]indol-6-yl)glutaramide]",C (“C” indicates maximum degradation < 50%)
–,< 50%,–,"Cc1ncsc1-c1ccc(CNC(=O)[C@@H]2C[C@@H](O)CN2C(=O)[C@@H](NC(=O)CCCCCCCCCCCCCCCCC(=O)N2CC(c3cc4cc(-c5ccccc5O)nnc4[nH]3)C2)C(C)(C)C)cc1 [Compound 19, (2S,4R)-4-hydroxy-1-((S)-2-(18-(3-(3-(2-hydroxyphenyl)-7H-pyrrolo[2,3-c]pyridazin-6-yl)azetidin-1-yl)-18-oxooctadecanamido)-3,3-dimethylbutanoyl)-N-(4-(4-methylthiazol-5-yl)benzyl)pyrrolidine-2-carboxamide]",C (“C” indicates maximum degradation < 50%)

# Further lines, the compound ahead of its results:
SMILES,DC50 [1],Dmax [2],DC50 [2],BRM HiBit Degradation Maximum (%) [1]
"Cc1ncsc1-c1ccc([C@H](C)NC(=O)[C@@H]2C[C@@H](O)CN2C(=O)[C@@H](c2cc(OCCN3C[C@@H]4[C@H](C3)[C@H]4c3cc4cc(-c5cc(F)cc(Cl)c5O)nnc4[nH]3)no2)C(C)C)cc1 (racemic) [Compound 225, (2S,4R)-1-((R)-2-(3-(2-((1R,5S,6R)-6-(3-(3-chloro-5-fluoro-2-hydroxyphenyl)-7H-pyrrolo[2,3-c]pyridazin-6-yl)-3-azabicyclo[3.1.0]hexan-3-yl)ethoxy)isoxazol-5-yl)-3-methylbutanoyl)-4-hydroxy-N-((S)-1-(4-(4-methylthiazol-5-yl)phenyl)ethyl)pyrrolidine-2-carboxamide]",> 10 nM,< 50%,–,A (“A” indicates maximum degradation ≥ 75%)
"Cc1ncsc1-c1ccc([C@H](C)NC(=O)[C@@H]2C[C@@H](O)CN2C(=O)[C@@H](c2cc(OCCN3CC(c4cc5cc(-c6cc(F)cc(Cl)c6O)nnc5[nH]4)C3)no2)C(C)C)cc1 (racemic) [Compound 287, (2S,4R)-1-((R)-2-(3-(2-(3-(3-(3-chloro-5-fluoro-2-hydroxyphenyl)-7H-pyrrolo[2,3-c]pyridazin-6-yl)azetidin-1-yl)ethoxy)isoxazol-5-yl)-3-methylbutanoyl)-4-hydroxy-N-((S)-1-(4-(4-methylthiazol-5-yl)phenyl)ethyl)pyrrolidine-2-carboxamide]",> 100 nM,< 50%,–,B (“B” indicates maximum degradation ≥ 50%)
"Cc1ncsc1-c1ccc([C@H](C)NC(=O)[C@@H]2C[C@@H](O)CN2C(=O)[C@@H](c2cc(OCCN3CC[C@H](c4cc5cc(-c6ccccc6O)nnc5[nH]4)C3)no2)C(C)C)cc1 (racemic) [Compound 280, (2S,4R)-4-hydroxy-1-((R)-2-(3-(2-((S)-3-(3-(2-hydroxyphenyl)-7H-pyrrolo[2,3-c]pyridazin-6-yl)pyrrolidin-1-yl)ethoxy)isoxazol-5-yl)-3-methylbutanoyl)-N-((S)-1-(4-(4-methylthiazol-5-yl)phenyl)ethyl)pyrrolidine-2-carboxamide]",> 10 nM,< 50%,–,A (“A” indicates maximum degradation ≥ 75%)
"Cc1ncsc1-c1ccc([C@H](C)NC(=O)[C@@H]2C[C@@H](O)CN2C(=O)[C@@H](c2cc(OCCN3C[C@@H]4[C@H](C3)[C@H]4c3[nH]c4nnc(-c5ccccc5O)cc4c3Cl)no2)C(C)C)cc1 (racemic) [Compound 131, (2S,4R)-1-[(2R)-2-(3-{2-[(1R,5S,6S)-6-[5-chloro-3-(2-hydroxyphenyl)-7H-pyrrolo[2,3-c]pyridazin-6-yl]-3-azabicyclo[3.1.0]hexan-3-yl]ethoxy}-1,2-oxazol-5-yl)-3-methylbutanoyl]-4-hydroxy-N-[(1S)-1-[4-(4-methyl-1,3-thiazol-5-yl)phenyl]ethyl]pyrrolidine-2-carboxamide]",> 10 nM,> 50%,> 100 nM,A (“A” indicates maximum degradation ≥ 75%)
"O=C1CCC(N2C(=O)c3ccc(NCCCCCCCCCCC(=O)N4CC(c5cc6cc(-c7ccccc7O)nnc6[nH]5)C4)cc3C2=O)C(=O)N1 (stereo not shown) [Compound 32, 2-(2,6-dioxopiperidin-3-yl)-5-((11-(3-(3-(2-hydroxyphenyl)-7H-pyrrolo[2,3-c]pyridazin-6-yl)azetidin-1-yl)-11-oxoundecyl)amino)isoindoline-1,3-dione]",–,< 50%,–,C (“C” indicates maximum degradation < 50%)
"Cc1ncsc1-c1ccc([C@H](C)NC(=O)[C@@H]2C[C@@H](O)CN2C(=O)[C@@H](c2cc(N3C[C@H]4C[C@@H]3CN4C(=O)[C@@H]3CCc4[nH]c5nnc(-c6ccccc6O)cc5c4C3)no2)C(C)C)cc1 [Compound 101, (2S,4R)-4-hydroxy-1-((R)-2-(3-((1R,4R)-5-((R)-3-(2-hydroxyphenyl)-6,7,8,9-tetrahydro-5H-pyridazino[3,4-b]indole-6-carbonyl)-2,5-diazabicyclo[2.2.1]heptan-2-yl)isoxazol-5-yl)-3-methylbutanoyl)-N-((S)-1-(4-(4-methylthiazol-5-yl)phenyl)ethyl)pyrrolidine-2-carboxamide]",< 10 nM,> 75%,> 10 nM,A (“A” indicates maximum degradation ≥ 75%)
"Cc1ncsc1-c1ccc([C@H](C)NC(=O)[C@@H]2C[C@@H](O)CN2C(=O)[C@@H](c2cc(OCC(=O)N3CC4(Cc5cc(-c6ccccc6O)nnc5N4)C3)no2)C(C)C)cc1 (racemic) [Compound 95, (2S,4R)-4-hydroxy-1-((R)-2-(3-(2-(3′-(2-hydroxyphenyl)-5′,7′-dihydrospiro[azetidine-3,6′-pyrrolo[2,3-c]pyridazin]-1-yl)-2-oxoethoxy)isoxazol-5-yl)-3-methylbutanoyl)-N-((S)-1-(4-(4-methylthiazol-5-yl)phenyl)ethyl)pyrrolidine-2-carboxamide]",> 1000 nM,< 50%,–,B (“B” indicates maximum degradation ≥ 50%)

# Reference: patent US20240024488A1, “COMPOUNDS AND USES THEREOF” (Foghorn Therapeutics Inc., priority 2020, published 2024)
